# Data: ChEMBL document CHEMBL5543117, “Novel TLR4-Activating Vaccine Adjuvant Enhances the Production of Enterococcus faecium-binding Antibodies” (J Med Chem, 2024)
# Activity calls are given as the source filed them. No cut-off for these calls is given here.
# Tests used:
# [1] = target: Transcription factor p65 (Homo sapiens) (UniProt Q04206); assay: Induction of NFkappaB p65 nuclear translocation in human THP1-Xblue cells assessed as percentage of positive nuclei at 10 uM measured after 90 mins by Hoechst 33342 staining based immunofluorescence analysis relative to control (reference value: 0%); format: cell-based
# Chain of Transcription factor p65 (Homo sapiens) (Q04206 whole entry): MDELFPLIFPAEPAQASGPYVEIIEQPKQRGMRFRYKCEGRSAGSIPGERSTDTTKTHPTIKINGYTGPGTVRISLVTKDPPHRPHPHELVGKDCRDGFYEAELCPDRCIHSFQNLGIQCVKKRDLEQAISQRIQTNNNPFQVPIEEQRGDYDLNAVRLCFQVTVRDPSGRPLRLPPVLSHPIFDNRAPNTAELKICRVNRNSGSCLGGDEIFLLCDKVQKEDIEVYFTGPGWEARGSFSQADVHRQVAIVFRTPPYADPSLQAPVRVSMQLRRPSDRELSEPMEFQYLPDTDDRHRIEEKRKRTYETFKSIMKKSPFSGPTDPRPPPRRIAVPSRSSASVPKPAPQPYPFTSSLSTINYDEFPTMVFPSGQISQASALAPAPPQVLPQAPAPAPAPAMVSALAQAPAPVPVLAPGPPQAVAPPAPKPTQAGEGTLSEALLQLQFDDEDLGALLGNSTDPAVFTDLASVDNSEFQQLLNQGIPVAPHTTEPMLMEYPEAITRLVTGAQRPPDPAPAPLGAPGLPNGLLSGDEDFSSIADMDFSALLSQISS
# [2] = target: Transcription factor p65 (Homo sapiens) (UniProt Q04206); assay: Induction of NFkappaB p65 nuclear translocation in human THP1-Xblue cells assessed as percentage of positive nuclei at 10 uM measured after 120 mins by Hoechst 33342 staining based immunofluorescence analysis (reference value: 0%); format: cell-based
# THP1-Xblue [3] = assay: Immunostimulatory activity in human THP1-Xblue cells assessed as increase in IL-6 release at 0.1 to 10 uM incubated for 16 to 18 hrs by ELISA; format: functional, cell-based; conditions: dose 0.1-10 µM, time 16-18 hrs
# THP1-Xblue [4] = assay: Activation of TRAM/TRIF pathway in human THP1-Xblue cells assessed as increase in STAT1 phosphorylation by Western blot analysis; format: cell-based
# Mus musculus [5] = assay: Adjuvant activity in OVA-immunized C57BL/6J mouse model assessed as increase in IgG levels at 10 ug, sc administered on day 0 and as booster dose on day 21 and measured after 42 days by ELISA; format: functional, organism-based; conditions: dose 10.0 µg, time 42.0 day
# THP1-Xblue [6] = assay: Activation of TRAM/TRIF pathway in human THP1-Xblue cells assessed as induction of phosphorylated IRF3 nuclear translocation by immunofluorescence analysis; format: cell-based
# [7] = target: Toll-like receptor 4 (Homo sapiens) (UniProt O00206); assay: Agonist activity at TLR4 in human THP1-Xblue cells assessed as induction of p65 phosphorylation at 10 uM incubated for 120 to 240 mins by immunoblotting analysis; format: cell-based; conditions: filed as agonist, time 120-240 min
# Chain of Toll-like receptor 4 (Homo sapiens) (O00206 whole entry): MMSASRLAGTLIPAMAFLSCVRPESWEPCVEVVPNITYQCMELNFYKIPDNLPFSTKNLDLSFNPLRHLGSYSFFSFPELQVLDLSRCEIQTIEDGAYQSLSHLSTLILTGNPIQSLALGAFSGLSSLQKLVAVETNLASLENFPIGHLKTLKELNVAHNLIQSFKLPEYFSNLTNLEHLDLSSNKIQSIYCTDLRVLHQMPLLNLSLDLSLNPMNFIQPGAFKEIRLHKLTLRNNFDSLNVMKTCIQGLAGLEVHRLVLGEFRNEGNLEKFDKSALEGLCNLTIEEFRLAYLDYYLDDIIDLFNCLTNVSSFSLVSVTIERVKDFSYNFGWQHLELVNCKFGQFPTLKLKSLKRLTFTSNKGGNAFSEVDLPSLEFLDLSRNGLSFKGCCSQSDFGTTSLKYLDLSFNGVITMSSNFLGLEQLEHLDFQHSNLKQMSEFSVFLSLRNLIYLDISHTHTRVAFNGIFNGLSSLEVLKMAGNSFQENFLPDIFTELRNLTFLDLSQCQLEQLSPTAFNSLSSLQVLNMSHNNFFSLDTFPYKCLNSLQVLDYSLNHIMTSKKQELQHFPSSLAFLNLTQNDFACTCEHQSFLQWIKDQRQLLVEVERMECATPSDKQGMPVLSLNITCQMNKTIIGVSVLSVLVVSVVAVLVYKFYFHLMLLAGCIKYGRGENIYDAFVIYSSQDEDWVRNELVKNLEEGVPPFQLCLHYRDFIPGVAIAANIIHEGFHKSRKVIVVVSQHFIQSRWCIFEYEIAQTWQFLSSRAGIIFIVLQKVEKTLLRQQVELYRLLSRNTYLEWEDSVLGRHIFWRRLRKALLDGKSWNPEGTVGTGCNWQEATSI
# Mus musculus [8] = assay: Effect on IgG2b levels in OVA-immunized C57BL/6J mouse model at 10 ug, sc administered on day 0 and as booster dose on day 21 and measured after 42 days by ELISA; format: functional, organism-based; conditions: dose 10.0 µg, time 42.0 day
# Oryctolagus cuniculus [9] = assay: Induction of antibody production in New Zealand rabbit at 38.4 ug administered on day 0, 7.7 ug on day 7 and 14 and measured after 28 days by ELISA; format: functional, organism-based; conditions: time 28.0 day
# THP1-Xblue [10] = assay: Induction of IFN-beta production in human THP1-Xblue cells; format: functional, cell-based
# [11] = Toxicity in OVA-immunized C57BL/6J mouse model assessed as change in AST level at 10 ug, SC administered on day 0 and as booster dose on day 20 and measured after 40 days; conditions: in vivo, 960 h, dose 10 µg, time 40 day
# [12] = target: Toll-like receptor 4 (Homo sapiens) (UniProt O00206); assay: Agonist activity at TLR4 in human THP1-Xblue cells assessed as induction of IkappaBalpha degradation at 10 uM incubated for 15 mins by immunoblotting analysis; format: cell-based; conditions: filed as agonist
# Mus musculus [13] = assay: Adjuvant activity in OVA-immunized C57BL/6J mouse model assessed as increase in IgG1 levels at 10 ug, sc administered on day 0 and as booster dose on day 21 and measured after 42 days by ELISA; format: functional, organism-based; conditions: dose 10.0 µg, time 42.0 day
# Oryctolagus cuniculus [14] = assay: Adjuvant activity in Enterococcus faecium PpiC-immunized New Zealand rabbit model assessed as production of PpiC specific antibody in sera at 1:100 dilutions at 38.4 ug administered on day 0, 7.7 ug on day 7 and 14 and measured after 28 days by absorbance based analysis; format: functional, organism-based; conditions: time 28.0 day
# [15] = Cytotoxicity against human THP1-Xblue cells assessed as reduction in cell viability at 0.1 to 10 uM incubated for 16 to 18 hrs by MTT assay; format: toxicity, cell-based; conditions: dose lower 0.1 µM, time lower 16 hrs, dose upper 10 µM, time upper 18 hrs
# [16] = Toxicity in OVA-immunized C57BL/6J mouse model assessed as change in body weight at 10 ug, SC administered on day 0 and measured after 4 days; conditions: in vivo, 96 h, dose 10 µg, time 4 day
# Oryctolagus cuniculus [17] = assay: Adjuvant activity in Enterococcus faecium PpiC-immunized New Zealand rabbit model assessed as production of PpiC specific antibody in sera at 1:50 dilutions at 38.4 ug administered on day 0, 7.7 ug on day 7 and 14 and measured after 28 days by absorbance based analysis; format: functional, organism-based; conditions: time 28.0 day
# Oryctolagus cuniculus [18] = assay: Adjuvant activity in Enterococcus faecium PpiC-immunized New Zealand rabbit model assessed as production of PpiC specific antibody in sera at 1:25600 dilutions at 38.4 ug administered on day 0, 7.7 ug on day 7 and 14 and measured after 28 days by absorbance based analysis; format: functional, organism-based; conditions: time 28.0 day
# THP1-Xblue [19] = assay: Immunostimulatory activity in human THP1-Xblue cells assessed as increase in IL-6 release incubated for 16 to 18 hrs by ELISA; format: functional, cell-based; conditions: dose 0.1-10 µM, time 16-18 hrs
# [20] = target: Toll-like receptor 2 (Homo sapiens) (UniProt O60603); assay: Agonist activity at human TLR2 in HEK-Blue hTLR2 cells assessed as increase in SEAP level at 0.1 to 25 uM incubated for 16 to 18 hrs by SEAP reporter gene based Quanti-Blue assay; format: cell-based; conditions: dose 0.1-25 µM, time 16-18 hrs
# Chain of Toll-like receptor 2 (Homo sapiens) (O60603 whole entry): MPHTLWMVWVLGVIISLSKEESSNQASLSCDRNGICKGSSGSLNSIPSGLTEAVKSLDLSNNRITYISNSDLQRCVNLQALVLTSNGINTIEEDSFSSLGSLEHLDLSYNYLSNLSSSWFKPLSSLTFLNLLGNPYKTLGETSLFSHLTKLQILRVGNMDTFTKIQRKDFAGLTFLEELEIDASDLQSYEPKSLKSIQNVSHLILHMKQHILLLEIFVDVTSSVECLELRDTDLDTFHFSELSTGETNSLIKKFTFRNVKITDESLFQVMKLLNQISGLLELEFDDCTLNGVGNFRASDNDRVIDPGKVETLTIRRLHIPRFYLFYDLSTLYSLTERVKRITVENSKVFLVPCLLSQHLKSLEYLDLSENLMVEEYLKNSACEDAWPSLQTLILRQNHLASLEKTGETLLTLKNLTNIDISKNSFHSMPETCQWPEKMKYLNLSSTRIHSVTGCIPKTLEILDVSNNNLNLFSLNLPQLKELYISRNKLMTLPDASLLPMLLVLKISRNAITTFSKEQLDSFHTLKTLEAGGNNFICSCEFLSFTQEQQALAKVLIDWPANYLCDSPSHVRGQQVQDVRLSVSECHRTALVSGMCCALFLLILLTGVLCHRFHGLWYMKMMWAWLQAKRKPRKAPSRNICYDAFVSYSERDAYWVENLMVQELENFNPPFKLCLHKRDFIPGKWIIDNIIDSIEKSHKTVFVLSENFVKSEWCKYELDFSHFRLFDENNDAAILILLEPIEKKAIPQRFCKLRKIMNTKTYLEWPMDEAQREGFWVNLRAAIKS
# THP1-Xblue [21] = assay: Immunostimulatory activity in human THP1-Xblue cells assessed as increase in TNF-alpha release incubated for 16 to 18 hrs by ELISA; format: functional, cell-based; conditions: dose 0.1-10 µM, time 16-18 hrs
# [22] = target: Toll-like receptor 4 (Homo sapiens) (UniProt O00206); assay: Agonist activity at TLR4 in human THP1-Xblue cells assessed as increase in SEAP level at 0.1 to 10 uM incubated for 16 to 18 hrs by SEAP reporter gene based Quanti-Blue assay; format: cell-based; conditions: filed as agonist, dose 0.1-10 µM, time 16-18 hrs
# THP1-Xblue [23] = assay: Activation of TRAM/TRIF pathway in human THP1-Xblue cells assessed as increase in IRF3 phosphorylation by Western blot analysis; format: cell-based
# THP1-Xblue [24] = assay: Immunostimulatory activity in human THP1-Xblue cells assessed as increase in IL-1beta release incubated for 16 to 18 hrs by ELISA; format: functional, cell-based; conditions: dose 0.1-10 µM, time 16-18 hrs
# Mus musculus [25] = assay: Adjuvant activity in OVA-immunized C57BL/6J mouse model assessed as increase in IgG2c levels at 10 ug, sc administered on day 0 and as booster dose on day 21 and measured after 42 days by ELISA; format: functional, organism-based; conditions: dose 10.0 µg, time 42.0 day
# [26] = target: Toll-like receptor 4 (Homo sapiens) (UniProt O00206); assay: Agonist activity at human TLR4 in HEK-Blue hTLR4 cells assessed as increase in SEAP level incubated for 16 to 18 hrs by SEAP reporter gene based Quanti-Blue assay; format: cell-based; conditions: filed as agonist, dose 0.1-25 µM, time 16-18 hrs
# [27] = Toxicity in OVA-immunized C57BL/6J mouse model assessed as change in ALT level at 10 ug, SC administered on day 0 and as booster dose on day 20 and measured after 40 days; conditions: in vivo, 960 h, dose 10 µg, time 40 day
# Oryctolagus cuniculus [28] = assay: Adjuvant activity in Enterococcus faecium PpiC-immunized New Zealand rabbit model assessed as production of PpiC specific antibody in sera at 38.4 ug administered on day 0, 7.7 ug on day 7 and 14 and measured after 28 days by ELISA; format: functional, organism-based; conditions: time 28.0 day
# Oryctolagus cuniculus [29] = assay: (§1) Adjuvant activity in Enterococcus faecium PpiC-immunized New Zealand rabbit model assessed as antibody production by measuring increase in vancomycin resistant Enterococcus faecium 11236/1 specific antibodies at 38.2 ug administered on day 0, 7.7 ug on day 7 and 14 and measured after 28 days by Whole-bacterial cell ELISA; format: functional, organism-based; conditions: time 28.0 day
# Oryctolagus cuniculus [30] = assay: Adjuvant activity in Enterococcus faecium PpiC-immunized New Zealand rabbit model assessed as production of PpiC specific antibody in terminal bleed sera at 1:1600 dilutions at 38.4 ug administered on day 0, 7.7 ug on day 7 and 14 and measured after 28 days by ELISA; format: functional, organism-based; conditions: time 28.0 day
# Oryctolagus cuniculus [31] = assay: Adjuvant activity in Enterococcus faecium PpiC-immunized New Zealand rabbit model assessed as production of PpiC specific antibody in terminal bleed sera at 1:1600 dilutions at 70.2 ug administered on day 0, 14 ug on day 7 and 14 and measured after 28 days by ELISA; format: functional, organism-based; conditions: time 28.0 day
# Mus musculus [32] = assay: Adjuvant activity in OVA-immunized C57BL/6J mouse model assessed as increase in IgG2b levels at 10 ug, sc administered on day 0 and as booster dose on day 21 and measured after 42 days by ELISA; format: functional, organism-based; conditions: dose 10.0 µg, time 42.0 day
# Oryctolagus cuniculus [33] = assay: as §1, with “70.2” for “38.2”, “14” for “7.7”; format: functional, organism-based; conditions: time 28.0 day
# Oryctolagus cuniculus [34] = assay: Adjuvant activity in Enterococcus faecium PpiC-immunized New Zealand rabbit model assessed as production of PpiC specific antibody in sera at 70.2 ug administered on day 0, 14 ug on day 7 and 14 and measured after 28 days by ELISA; format: functional, organism-based; conditions: time 28.0 day
# Oryctolagus cuniculus [35] = assay: Adjuvant activity in Enterococcus faecium PpiC-immunized New Zealand rabbit model assessed as production of PpiC specific antibody in sera at 1:25600 dilutions at 70.2 ug administered on day 0, 14 ug on day 7 and 14 and measured after 28 days absorbance based analysis; format: functional, organism-based; conditions: time 28.0 day
# Oryctolagus cuniculus [36] = assay: Adjuvant activity in Enterococcus faecium PpiC-immunized New Zealand rabbit model assessed as production of PpiC specific antibody in sera at 1:50 dilutions at 70.2 ug administered on day 0, 14 ug on day 7 and 14 and measured after 28 days by absorbance based analysis; format: functional, organism-based; conditions: time 28.0 day
# Oryctolagus cuniculus [37] = assay: Adjuvant activity in Enterococcus faecium PpiC-immunized New Zealand rabbit model assessed as production of PpiC specific antibody in sera at 1:100 dilutions at 70.2 ug administered on day 0, 14 ug on day 7 and 14 and measured after 28 days by absorbance based analysis; format: functional, organism-based; conditions: time 28.0 day
smiles,measurement,setting,value
CCCCCCCCCCCC(=O)N[C@H]1[C@H](OC(=O)CCCCCCCCCCC)O[C@H](CO)[C@@H](OP(=O)(O)O)[C@@H]1OC(=O)CCCCCCCCCCC,Activity,[1],1.3%
same,Activity,[2],1.8%
same,Activity,THP1-Xblue [3],inactive
CCCCCCCCCCCC(=O)N[C@H]1[C@H](OC(=O)CCCCCCCCCCC)O[C@H](COC(=O)C(C)(CO)CO)[C@@H](OP(=O)([O-])[O-])[C@@H]1OC(=O)CCCCCCCCCCC.[Na+].[Na+],Activity,THP1-Xblue [4],inactive
same,Activity,Mus musculus [5],Active
same,Activity,THP1-Xblue [6],inactive
same,Activity,[7],Active
same,Activity,Mus musculus [8],inactive
same,Activity,Oryctolagus cuniculus [9],inactive
same,Activity,THP1-Xblue [10],inactive
same,Activity,[1],15.3%
same,Activity,[11],Non-Toxic
same,Activity,[12],Active
same,Activity,Mus musculus [13],Active
same,Activity,Oryctolagus cuniculus [14],Active
same,Activity,[15],Non-Toxic
same,Activity,[16],Non-Toxic
same,Activity,Oryctolagus cuniculus [17],Active
same,Activity,Oryctolagus cuniculus [18],Active
same,Activity,THP1-Xblue [19],Dose-Dependent Effect
same,Activity,[20],inactive
same,Activity,THP1-Xblue [21],Dose-Dependent Effect
same,Activity,[22],Active
same,Activity,THP1-Xblue [23],inactive
same,Activity,THP1-Xblue [24],Dose-Dependent Effect
same,Activity,[2],19%
same,Activity,Mus musculus [25],Active
same,Activity,[26],Active
same,Activity,[27],Non-Toxic
same,Activity,Oryctolagus cuniculus [28],Active
same,Activity,Oryctolagus cuniculus [29],Active
same,Activity,Oryctolagus cuniculus [30],Active
CCCCCCCCCCCCCC(=O)O[C@H](CCCCCCCCCCC)CC(=O)N[C@H]1[C@H](OC[C@H]2OC(O)[C@H](NC(=O)C[C@H](O)CCCCCCCCCCC)[C@@H](OC(=O)C[C@H](O)CCCCCCCCCCC)[C@@H]2O)O[C@H](CO)[C@@H](OP(=O)(O)O)[C@@H]1OC(=O)C[C@@H](CCCCCCCCCCC)OC(=O)CCCCCCCCCCCCC (some centres not stated),Activity,Oryctolagus cuniculus [31],Active
same,Activity,Mus musculus [32],Active
same,Activity,Mus musculus [5],Active
same,Activity,Oryctolagus cuniculus [33],Active
same,Activity,Oryctolagus cuniculus [34],Active
same,Activity,Oryctolagus cuniculus [35],Active
same,Activity,Oryctolagus cuniculus [36],Active
same,Activity,Mus musculus [13],Active
same,Activity,Oryctolagus cuniculus [37],Active
same,Activity,Mus musculus [25],Active
